Measurements published in PubChem BioAssay (NCI).
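1) Cells in 96-well plates. 2) Compound, 48 h, 5 concentrations. 3) Linear interpolation between surrounding doses. 4) Unreached endpoint = highest concentration. TGI: concentration producing complete growth inhibition.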

How the values were obtained:
Assay in all cases: DTP human tumour cell line panel, 48 h
786-0 renal = tested on: 786-0 renal
HOP-62 NSCLC = tested on: HOP-62 NSCLC
EKVX NSCLC = tested on: EKVX NSCLC
SK-MEL-5 melanoma = tested on: SK-MEL-5 melanoma
RXF 393 renal = tested on: RXF 393 renal
NCI-H226 lung = tested on: NCI-H226 lung
HCT-15 colon = tested on: HCT-15 colon
SNB-19 CNS = tested on: SNB-19 CNS
COLO 205 colon = tested on: COLO 205 colon
NCI-H522 lung = tested on: NCI-H522 lung
OVCAR-8 ovarian = tested on: OVCAR-8 ovarian
HL-60(TB) leukemia = tested on: HL-60(TB) leukemia
K-562 leukemia = tested on: K-562 leukemia
SK-MEL-28 melanoma = tested on: SK-MEL-28 melanoma
SR leukemia = tested on: SR leukemia
SF-268 CNS = tested on: SF-268 CNS
NCI-H460 lung = tested on: NCI-H460 lung
PC-3 prostate = tested on: PC-3 prostate
IGROV1 ovarian = tested on: IGROV1 ovarian
NCI/ADR-RES ovarian = tested on: NCI/ADR-RES ovarian
M14 melanoma = tested on: M14 melanoma
UACC-257 melanoma = tested on: UACC-257 melanoma
U251 CNS = tested on: U251 CNS
RPMI-8226 leukemia = tested on: RPMI-8226 leukemia
SF-295 CNS = tested on: SF-295 CNS
LOX IMVI melanoma = tested on: LOX IMVI melanoma
DU-145 prostate = tested on: DU-145 prostate
CCRF-CEM leukemia = tested on: CCRF-CEM leukemia
A549 NSCLC = tested on: A549 NSCLC
MDA-MB-435 = tested on: MDA-MB-435
MDA-N = tested on: MDA-N
MOLT-4 leukemia = tested on: MOLT-4 leukemia
SNB-75 CNS = tested on: SNB-75 CNS
SW-620 colon = tested on: SW-620 colon
HCT-116 colon = tested on: HCT-116 colon
SN12C renal = tested on: SN12C renal
OVCAR-5 ovarian = tested on: OVCAR-5 ovarian
OVCAR-3 ovarian = tested on: OVCAR-3 ovarian
HT29 colon = tested on: HT29 colon
BT-549 breast = tested on: BT-549 breast
NCI-H23 lung = tested on: NCI-H23 lung
KM12 colon = tested on: KM12 colon
T-47D breast = tested on: T-47D breast
TK-10 renal = tested on: TK-10 renal
ACHN renal = tested on: ACHN renal
MDA-MB-231 breast = tested on: MDA-MB-231 breast
UO-31 renal = tested on: UO-31 renal
MCF7 breast = tested on: MCF7 breast
SF-539 CNS = tested on: SF-539 CNS
MALME-3M melanoma = tested on: MALME-3M melanoma
CAKI-1 renal = tested on: CAKI-1 renal
HS 578T breast = tested on: HS 578T breast
SK-MEL-2 melanoma = tested on: SK-MEL-2 melanoma
UACC-62 melanoma = tested on: UACC-62 melanoma
A498 renal = tested on: A498 renal
OVCAR-4 ovarian = tested on: OVCAR-4 ovarian
SK-OV-3 ovarian = tested on: SK-OV-3 ovarian
HCC-2998 colon = tested on: HCC-2998 colon
HOP-92 NSCLC = tested on: HOP-92 NSCLC

## O=C(C[C@@H]1CCCN2CCCC[C@H]12)N1c2ccccc2Sc2ccc(Cl)cc21
786-0 renal
  TGI: 23.1 µM
HOP-62 NSCLC
  TGI: 26 µM
EKVX NSCLC
  TGI: 33.8 µM
SK-MEL-5 melanoma
  TGI: 23.9 µM
RXF 393 renal
  TGI: 29 µM
NCI-H226 lung
  TGI: 46 µM
HCT-15 colon
  TGI: 30.4 µM
SNB-19 CNS
  TGI: 31.1 µM
COLO 205 colon
  TGI: 26.1 µM
NCI-H522 lung
  TGI: 26.9 µM
OVCAR-8 ovarian
  TGI: 37.2 µM
HL-60(TB) leukemia
  TGI: 36.8 µM
K-562 leukemia
  TGI: 35.2 µM
SK-MEL-28 melanoma
  TGI: 26.3 µM
SR leukemia
  TGI: 53 µM
SF-268 CNS
  TGI: 42.8 µM
NCI-H460 lung
  TGI: 28.3 µM
PC-3 prostate
  TGI: 27.2 µM
IGROV1 ovarian
  TGI: 25.6 µM
NCI/ADR-RES ovarian
  TGI: 29.4 µM
M14 melanoma
  TGI: 17.9 µM
UACC-257 melanoma
  TGI: 25.6 µM
U251 CNS
  TGI: 24.4 µM
RPMI-8226 leukemia
  TGI: 54.8 µM
SF-295 CNS
  TGI: 36.7 µM
LOX IMVI melanoma
  TGI: 27.3 µM
DU-145 prostate
  TGI: 28.2 µM
CCRF-CEM leukemia
  TGI: 35.1 µM
A549 NSCLC
  TGI: 30.9 µM
MDA-MB-435
  TGI: 29.3 µM
MDA-N
  TGI: 30.9 µM
MOLT-4 leukemia
  TGI: 30 µM
SNB-75 CNS
  TGI: 33.4 µM
SW-620 colon
  TGI: 26.8 µM
HCT-116 colon
  TGI: 29.5 µM
SN12C renal
  TGI: 32.1 µM
OVCAR-5 ovarian
  TGI: 26.4 µM
OVCAR-3 ovarian
  TGI: 31.9 µM
HT29 colon
  TGI: 22.8 µM
BT-549 breast
  TGI: 28 µM
NCI-H23 lung
  TGI: 29.1 µM
KM12 colon
  TGI: 27.6 µM
T-47D breast
  TGI: 39.5 µM
TK-10 renal
  TGI: 35.5 µM
ACHN renal
  TGI: 27.2 µM
MDA-MB-231 breast
  TGI: 28.4 µM
UO-31 renal
  TGI: 25.9 µM
MCF7 breast
  TGI: 35.5 µM
SF-539 CNS
  TGI: 32.1 µM
MALME-3M melanoma
  TGI: 31.2 µM
CAKI-1 renal
  TGI: 27.6 µM
HS 578T breast
  TGI: 38.5 µM

## CCOC(=O)C(=[N+]=[N-])C(=O)CSC#N
786-0 renal
  TGI: > 100 µM
HOP-62 NSCLC
  TGI: > 100 µM
EKVX NSCLC
  TGI: > 100 µM
SK-MEL-5 melanoma
  TGI: > 100 µM
RXF 393 renal
  TGI: > 100 µM
NCI-H226 lung
  TGI: > 100 µM
SK-MEL-2 melanoma
  TGI: > 100 µM
UACC-62 melanoma
  TGI: > 100 µM
HCT-15 colon
  TGI: > 100 µM
SNB-19 CNS
  TGI: > 100 µM
COLO 205 colon
  TGI: > 100 µM
A498 renal
  TGI: > 100 µM
NCI-H522 lung
  TGI: 79.4 µM
OVCAR-8 ovarian
  TGI: > 100 µM
HL-60(TB) leukemia
  TGI: > 100 µM
SK-MEL-28 melanoma
  TGI: > 100 µM
OVCAR-4 ovarian
  TGI: > 100 µM
SF-268 CNS
  TGI: > 100 µM
PC-3 prostate
  TGI: > 100 µM
IGROV1 ovarian
  TGI: > 100 µM
NCI/ADR-RES ovarian
  TGI: > 100 µM
M14 melanoma
  TGI: > 100 µM
UACC-257 melanoma
  TGI: > 100 µM
U251 CNS
  TGI: > 100 µM
SF-295 CNS
  TGI: > 100 µM
LOX IMVI melanoma
  TGI: 61.9 µM
DU-145 prostate
  TGI: > 100 µM
CCRF-CEM leukemia
  TGI: > 100 µM
A549 NSCLC
  TGI: > 100 µM
MDA-MB-435
  TGI: > 100 µM
MDA-N
  TGI: > 100 µM
MOLT-4 leukemia
  TGI: > 100 µM
SK-OV-3 ovarian
  TGI: > 100 µM
SW-620 colon
  TGI: > 100 µM
HCT-116 colon
  TGI: > 100 µM
SN12C renal
  TGI: > 100 µM
OVCAR-5 ovarian
  TGI: > 100 µM
HT29 colon
  TGI: > 100 µM
BT-549 breast
  TGI: > 100 µM
NCI-H23 lung
  TGI: > 100 µM
KM12 colon
  TGI: > 100 µM
T-47D breast
  TGI: > 100 µM
TK-10 renal
  TGI: > 100 µM
ACHN renal
  TGI: 55.3 µM
MDA-MB-231 breast
  TGI: > 100 µM
UO-31 renal
  TGI: > 100 µM
MCF7 breast
  TGI: > 100 µM
SF-539 CNS
  TGI: 47.1 µM
MALME-3M melanoma
  TGI: > 100 µM
CAKI-1 renal
  TGI: > 100 µM
HS 578T breast
  TGI: > 100 µM

## NCCCN(CCCCN(CCCN)Cc1ccccc1)Cc1ccccc1
786-0 renal
  TGI: 77.5 µM
EKVX NSCLC
  TGI: 96.5 µM
SK-MEL-5 melanoma
  TGI: > 100 µM
RXF 393 renal
  TGI: > 100 µM
NCI-H226 lung
  TGI: > 100 µM
UACC-62 melanoma
  TGI: > 100 µM
HCT-15 colon
  TGI: > 100 µM
SNB-19 CNS
  TGI: 22.5 µM
COLO 205 colon
  TGI: > 100 µM
A498 renal
  TGI: > 100 µM
NCI-H522 lung
  TGI: 23.9 µM
OVCAR-8 ovarian
  TGI: > 100 µM
HL-60(TB) leukemia
  TGI: > 100 µM
K-562 leukemia
  TGI: > 100 µM
SK-MEL-28 melanoma
  TGI: > 100 µM
OVCAR-4 ovarian
  TGI: > 100 µM
HCC-2998 colon
  TGI: 22.7 µM
SF-268 CNS
  TGI: 37.1 µM
NCI-H460 lung
  TGI: 32.2 µM
IGROV1 ovarian
  TGI: 37.1 µM
NCI/ADR-RES ovarian
  TGI: > 100 µM
M14 melanoma
  TGI: > 100 µM
UACC-257 melanoma
  TGI: > 100 µM
U251 CNS
  TGI: > 100 µM
RPMI-8226 leukemia
  TGI: > 100 µM
SF-295 CNS
  TGI: > 100 µM
LOX IMVI melanoma
  TGI: 40.5 µM
DU-145 prostate
  TGI: > 100 µM
CCRF-CEM leukemia
  TGI: > 100 µM
A549 NSCLC
  TGI: > 100 µM
MDA-MB-435
  TGI: > 100 µM
MDA-N
  TGI: 33.1 µM
MOLT-4 leukemia
  TGI: 46 µM
SNB-75 CNS
  TGI: 37.6 µM
SK-OV-3 ovarian
  TGI: > 100 µM
SW-620 colon
  TGI: > 100 µM
HCT-116 colon
  TGI: > 100 µM
SN12C renal
  TGI: 42.5 µM
OVCAR-5 ovarian
  TGI: 37.8 µM
HT29 colon
  TGI: 44.1 µM
BT-549 breast
  TGI: > 100 µM
NCI-H23 lung
  TGI: > 100 µM
KM12 colon
  TGI: > 100 µM
T-47D breast
  TGI: > 100 µM
TK-10 renal
  TGI: > 100 µM
ACHN renal
  TGI: > 100 µM
MDA-MB-231 breast
  TGI: > 100 µM
UO-31 renal
  TGI: > 100 µM
MCF7 breast
  TGI: 60.5 µM
SF-539 CNS
  TGI: > 100 µM
MALME-3M melanoma
  TGI: > 100 µM
CAKI-1 renal
  TGI: 31.9 µM
HS 578T breast
  TGI: 35.7 µM

## CN(CCNC(=O)c1cn(C)c2c1ccc1ccccc12)CCNC(=O)c1cn(C)c2c1ccc1ccccc12
HOP-62 NSCLC
  TGI: 5.53 µM
EKVX NSCLC
  TGI: 6.93 µM
SK-MEL-5 melanoma
  TGI: > 100 µM
NCI-H226 lung
  TGI: > 75.1 µM
SK-MEL-2 melanoma
  TGI: 4.6 µM
UACC-62 melanoma
  TGI: 12.7 µM
SNB-19 CNS
  TGI: > 100 µM
A498 renal
  TGI: > 34.5 µM
OVCAR-8 ovarian
  TGI: > 100 µM
OVCAR-4 ovarian
  TGI: 16.2 µM
HCC-2998 colon
  TGI: 1.49 µM
SF-268 CNS
  TGI: > 21.3 µM
NCI-H460 lung
  TGI: 3.72 µM
PC-3 prostate
  TGI: 7.02 µM
IGROV1 ovarian
  TGI: 4.65 µM
NCI/ADR-RES ovarian
  TGI: > 100 µM
M14 melanoma
  TGI: 2.97 µM
UACC-257 melanoma
  TGI: 6.62 µM
U251 CNS
  TGI: 4.58 µM
SF-295 CNS
  TGI: > 22.2 µM
LOX IMVI melanoma
  TGI: > 100 µM
CCRF-CEM leukemia
  TGI: > 100 µM
A549 NSCLC
  TGI: 11.1 µM
MDA-N
  TGI: 4.25 µM
SK-OV-3 ovarian
  TGI: 22.3 µM
SW-620 colon
  TGI: > 100 µM
SN12C renal
  TGI: 10.6 µM
OVCAR-5 ovarian
  TGI: 3.52 µM
OVCAR-3 ovarian
  TGI: 11.4 µM
HT29 colon
  TGI: > 100 µM
HOP-92 NSCLC
  TGI: 5.26 µM
BT-549 breast
  TGI: 6.87 µM
NCI-H23 lung
  TGI: > 100 µM
KM12 colon
  TGI: 2.98 µM
ACHN renal
  TGI: > 100 µM
MDA-MB-231 breast
  TGI: 3.8 µM
UO-31 renal
  TGI: 4.68 µM
MALME-3M melanoma
  TGI: 5.13 µM
CAKI-1 renal
  TGI: > 100 µM
HS 578T breast
  TGI: 3.11 µM
